# Like-named read-outs stand apart in the source and are kept apart here.
# Tests used:
# [1] = test system: CCRF-CEM; assay: NCI human tumor cell panel: CCRF-CEM (Leukemia); assay type: cell-based; conditions: for GI50: read-out: Log10 GI50 (converted); for IC (TGI): read-out: Log10 TGI (converted)
# [2] = test system: HL-60(TB); assay: NCI human tumor cell panel: HL-60(TB) (Leukemia); assay type: cell-based; conditions: for GI50: read-out: Log10 GI50 (converted)
# [3] = test system: K-562; assay: NCI human tumor cell panel: K-562 (Leukemia); assay type: cell-based; conditions: for GI50: K562, K-562, read-out: Log10 GI50 (converted); for IC (TGI): K562, K-562, read-out: Log10 TGI (converted)
# [4] = test system: MOLT-4; assay: NCI human tumor cell panel: MOLT-4 (Leukemia); assay type: cell-based; conditions: for GI50: MOLT-4, read-out: Log10 GI50 (converted); for IC (TGI): MOLT-4, read-out: Log10 TGI (converted)
# [5] = test system: RPMI-8226; assay: NCI human tumor cell panel: RPMI-8226 (Leukemia); assay type: cell-based; conditions: for GI50: RPMI-8226, read-out: Log10 GI50 (converted); for IC (TGI): RPMI-8226, read-out: Log10 TGI
# [6] = test system: A549/ATCC; assay: NCI human tumor cell panel: A549/ATCC (Non-Small Cell Lung Cancer); assay type: cell-based; conditions: for GI50: read-out: Log10 GI50 (converted); for IC (TGI): read-out: Log10 TGI (converted)
# [7] = test system: NCI-H226; assay: NCI human tumor cell panel: NCI-H226 (Non-Small Cell Lung Cancer); assay type: cell-based; conditions: for GI50: NCI-H226, read-out: Log10 GI50 (converted); for IC (TGI): NCI-H226, read-out: Log10 TGI (converted)
# [8] = test system: COLO 205; assay: NCI human tumor cell panel: COLO 205 (Colon Cancer); assay type: cell-based
# [9] = test system: HCT-116; assay: NCI human tumor cell panel: HCT-116 (Colon Cancer); assay type: cell-based; conditions: for GI50: HCT-116, read-out: Log10 GI50 (converted); for IC (TGI): HCT-116, read-out: Log10 TGI (converted)
# [10] = test system: KM12; assay: NCI human tumor cell panel: KM12 (Colon Cancer); assay type: cell-based; conditions: for GI50: KM12, read-out: Log10 GI50 (converted); for IC (TGI): KM12, read-out: Log10 TGI (converted)
# [11] = test system: SW-620; assay: NCI human tumor cell panel: SW-620 (Colon Cancer); assay type: cell-based; conditions: for GI50: SW-620, read-out: Log10 GI50 (converted); for IC (TGI): SW-620, read-out: Log10 TGI (converted)
# [12] = test system: SF-268; assay: NCI human tumor cell panel: SF-268 (CNS Cancer); assay type: cell-based; conditions: for GI50: SF-268, read-out: Log10 GI50 (converted); for IC (TGI): SF-268, read-out: Log10 TGI (converted)
# [13] = test system: MALME-3M; assay: NCI human tumor cell panel: MALME-3M (Melanoma); assay type: cell-based; conditions: Malme-3M; for GI50: read-out: Log10 GI50 (converted); for IC (TGI): read-out: Log10 TGI (converted)
# [14] = test system: SK-MEL-5; assay: NCI human tumor cell panel: SK-MEL-5 (Melanoma); assay type: cell-based; conditions: for GI50: SK-MEL-5, read-out: Log10 GI50 (converted); for IC (TGI): SK-MEL-5, read-out: Log10 TGI (converted)
# [15] = test system: UACC-257; assay: NCI human tumor cell panel: UACC-257 (Melanoma); assay type: cell-based; conditions: for GI50: UACC-257, read-out: Log10 GI50 (converted); for IC (TGI): UACC-257, read-out: Log10 TGI (converted)
# [16] = test system: UACC-62; assay: NCI human tumor cell panel: UACC-62 (Melanoma); assay type: cell-based; conditions: for GI50: UACC-62, read-out: Log10 GI50 (converted); for IC (TGI): UACC-62, read-out: Log10 TGI (converted)
# [17] = test system: OVCAR-3; assay: NCI human tumor cell panel: OVCAR-3 (Ovarian Cancer); assay type: cell-based; conditions: for GI50: OVCAR-3, read-out: Log10 GI50 (converted); for IC (TGI): OVCAR-3, read-out: Log10 TGI (converted)
# [18] = test system: OVCAR-8; assay: NCI human tumor cell panel: OVCAR-8 (Ovarian Cancer); assay type: cell-based; conditions: for GI50: OVCAR-8, read-out: Log10 GI50 (converted); for IC (TGI): OVCAR-8, read-out: Log10 TGI (converted)
# [19] = test system: A498; assay: NCI human tumor cell panel: A498 (Renal Cancer); assay type: cell-based; conditions: for GI50: A498, read-out: Log10 GI50 (converted); for IC (TGI): A498, read-out: Log10 TGI (converted)
# [20] = test system: ACHN; assay: NCI human tumor cell panel: ACHN (Renal Cancer); assay type: cell-based; conditions: for GI50: read-out: Log10 GI50 (converted); for IC (TGI): read-out: Log10 TGI (converted)
# [21] = test system: CAKI-1; assay: NCI human tumor cell panel: CAKI-1 (Renal Cancer); assay type: cell-based; conditions: for GI50: CAKI-1, read-out: Log10 GI50 (converted); for IC (TGI): CAKI-1, read-out: Log10 TGI (converted)
# [22] = test system: RXF-393; assay: NCI human tumor cell panel: RXF-393 (Renal Cancer); assay type: cell-based; conditions: for GI50: RXF-393, read-out: Log10 GI50 (converted); for IC (TGI): RXF-393, read-out: Log10 TGI (converted)
# [23] = test system: SN12C; assay: NCI human tumor cell panel: SN12C (Renal Cancer); assay type: cell-based; conditions: for GI50: read-out: Log10 GI50 (converted); for IC (TGI): read-out: Log10 TGI (converted)
# [24] = test system: DU-145; assay: NCI human tumor cell panel: DU-145 (Prostate Cancer); assay type: cell-based; conditions: for GI50: DU-145, read-out: Log10 GI50 (converted); for IC (TGI): DU-145, read-out: Log10 TGI (converted)
# [25] = test system: MCF7; assay: NCI human tumor cell panel: MCF7 (Breast Cancer); assay type: cell-based; conditions: for GI50: MCF7, read-out: Log10 GI50 (converted); for IC (TGI): MCF7, read-out: Log10 TGI (converted)
# [26] = test system: MDA-MB-231/ATCC; assay: NCI human tumor cell panel: MDA-MB-231/ATCC (Breast Cancer); assay type: cell-based; conditions: for GI50: read-out: Log10 GI50 (converted)
# [27] = Selective cytotoxicity microculture assay, human renal carcinoma; conditions: human, SCI (selectively cytotoxicity index), GI50 (RPTEC)/GI50 (A-498)
# [28] = test system: panel of sixty different human tumor cell lines; assay: NCI human tumor cell panel: whole panel (mean graph summary); conditions: for CC50: Homo sapiens; for Log10 TGI, Delta / Log10 TGI, Range: whole panel
# [29] = Homo sapiens, MDA-MB-231, MDA-MB-231/ATCC
# [30] = read-out: Log10 LC50, MG_MID, mean over the panel (converted)
# [31] = read-out: Log10 LC50, row head (cell line) not given (converted)
smiles,measurement,setting,value
OCc1ccc(-c2ccc(-c3ccc(CO)[se]3)[se]2)[se]1 [compound 675247],GI50,[1],3.39 µM
same,IC (TGI),[1],10 µM
same,GI50,[2],4.07 µM
same,GI50,[3],1.32 µM
same,IC (TGI),[3],5.01 µM
same,GI50,[4],3.31 µM
same,IC (TGI),[4],8.32 µM
same,GI50,[5],4.07 µM
same,IC (TGI),[5],> 100 µM
same,GI50,[6],4.57 µM
same,IC (TGI),[6],19.5 µM
same,GI50,[7],1.7 µM
same,IC (TGI),[7],3.89 µM
same,GI50,"[8]; COLO 205, read-out: Log10 GI50 (converted)",1.95 µM
same,IC (TGI),"[8]; COLO 205, read-out: Log10 TGI (converted)",5.13 µM
same,GI50,[9],0.537 µM
same,IC (TGI),[9],11.2 µM
same,GI50,[10],4.47 µM
same,IC (TGI),[10],15.1 µM
same,GI50,[11],1.35 µM
same,IC (TGI),[11],3.63 µM
same,GI50,[12],1.74 µM
same,IC (TGI),[12],4.37 µM
same,GI50,[13],2.88 µM
same,IC (TGI),[13],10.7 µM
same,GI50,[14],1.45 µM
same,IC (TGI),[14],3.02 µM
same,GI50,[15],0.437 µM
same,IC (TGI),[15],2 µM
same,GI50,[16],0.155 µM
same,IC (TGI),[16],2.45 µM
same,GI50,[17],0.209 µM
same,IC (TGI),[17],1.17 µM
same,GI50,[18],3.72 µM
same,IC (TGI),[18],17.8 µM
same,GI50,[19],0.38 µM
same,IC (TGI),[19],1.41 µM
same,GI50,[20],3.98 µM
same,IC (TGI),[20],> 100 µM
same,GI50,[21],0.0741 µM
same,IC (TGI),[21],0.468 µM
same,GI50,[22],1.58 µM
same,IC (TGI),[22],3.72 µM
same,GI50,[23],2.75 µM
same,IC (TGI),[23],11.7 µM
same,GI50,[24],6.92 µM
same,IC (TGI),[24],19.5 µM
same,GI50,[25],0.158 µM
same,IC (TGI),[25],11.2 µM
same,GI50,[26]; [29],5.01 µM
same,Log10 GI50,[26]; MDA-MB-231/ATCC,−5.27
same,selectivity ratio,[27],> 1000
same,CC50,[28]; [30],45.7 µM
same,CC50,[28]; [31],> 100 µM
same,"Log10 GI50, MG_MID",[28]; mean over the panel,−5.65
same,"Log10 TGI, Delta",[28],1.36
same,"Log10 TGI, Range",[28],2.33
OCc1ccc(-c2ccc(-c3ccc(CO)[se]3)s2)[se]1 [compound 676632],GI50,[1],87.1 µM
same,IC (TGI),[1],> 100 µM
same,GI50,[2],> 100 µM
same,IC (TGI),[2]; read-out: Log10 TGI,> 100 µM
same,GI50,[3],0.0479 µM
same,IC (TGI),[3],> 100 µM
same,GI50,[4],> 100 µM
same,IC (TGI),[4],> 100 µM
same,GI50,[5],> 100 µM
same,IC (TGI),[5],> 100 µM
same,GI50,[6],2.63 µM
same,IC (TGI),[6],> 100 µM
same,GI50,[7],0.0195 µM
same,IC (TGI),[7],0.0537 µM
same,GI50,[9],> 100 µM
same,IC (TGI),[9],> 100 µM
same,GI50,[10],0.537 µM
same,IC (TGI),[10],> 100 µM
same,GI50,[11],> 100 µM
same,IC (TGI),[11],> 100 µM
same,GI50,[12],> 100 µM
same,IC (TGI),[12],> 100 µM
same,GI50,[13],> 100 µM
same,IC (TGI),[13],> 100 µM
same,GI50,[14],63.1 µM
same,IC (TGI),[14],> 100 µM
same,GI50,[15],0.0214 µM
same,IC (TGI),[15],> 100 µM
same,GI50,[16],0.0224 µM
same,IC (TGI),[16],0.0562 µM
same,GI50,[17],0.0195 µM
same,IC (TGI),[17],0.0676 µM
same,GI50,[18],> 100 µM
same,IC (TGI),[18],> 100 µM
same,GI50,[19],0.0186 µM
same,IC (TGI),[19],0.0427 µM
same,GI50,[20],> 100 µM
same,IC (TGI),[20],> 100 µM
same,GI50,[21],0.0126 µM
same,IC (TGI),[21],0.123 µM
same,GI50,[22],> 100 µM
same,IC (TGI),[22],> 100 µM
same,GI50,[23],> 100 µM
same,IC (TGI),[23],> 100 µM
same,GI50,[24],95.5 µM
same,IC (TGI),[24],> 100 µM
same,GI50,[25],0.0123 µM
same,IC (TGI),[25],> 100 µM
same,GI50,[26]; [29],> 100 µM
same,IC (TGI),"[26]; Homo sapiens, MDA-MB-231, MDA-MB-231/ATCC, read-out: Log10 TGI (converted)",> 100 µM
same,selectivity ratio,[27],> 1000
same,CC50,[28]; [30],69.2 µM
same,CC50,[28]; [31],> 100 µM
same,Log10 TGI,[28]; listed as head (cell line) not given,>−4.00
same,"Log10 GI50, MG_MID",[28]; mean over the panel,−5.16
same,"Log10 TGI, MG_MID",[28]; mean over the panel,−4.48
same,"Log10 TGI, Delta",[28],2.89
same,"Log10 TGI, Range",[28],3.37

# — US20040063662A1, “Selenophene anti-tumor agents” (priority 1996, published 2004)
